These results are taken from patent publication US12568991B2, “Method for increasing the solubility and stability of organic compositions” (GLANBIA DAIRY NUTRITION LIMITED, priority 2017, dated 2026).

Molecules are shown by their SMILES.

The format of data set [1] is physicochemical. As to conditions: pH 7. An excerpt: Creatine Formulation: A solution of surfactants was made by combining soy lecithin with 48-98% acetone insolubility (3.1 to 9.9 g/100 g as in dispersion or 9.2 to 16.9 g/100 g as in powder) in water (pH 7.0), with maltodextrin MD040 (Maltrin®, Grain Processing Corporation, 4.9-10.2 g/100 g as in dispersion or 12.4-17.7 g/100 g as in powder). Then the micronized (200 Mesh size or 70-80 μm) creatine monohydrate (23.7-40.2 g/100 g as in dispersion or 65.2-79.3 g/100 g as in powder), along with Alpha cyclodextrin (Cavamax®, Wacker Chemie AG, 0-0.26 g/100 g as in dispersion or 0-0.4 g/100 g as in powder), was added to the above solution of surfactants. After premixing the dispersion, it was run through the homogenizer at 500 psi/34 bar, 1 pass. The dispersion thus formed was heated to a pasteurization temperature of 72° C., for 30 min. Finally, this dispersion was spray dried, with TInlet=220-230° C. and TOutlet=92-100° C. Creatine shelf stability was evaluated at pH 3.3-7.0.
For the shelf-stability study, the corresponding spray-dried powders produced from the slurry were used for determining the chemical stability of limited-solubility organic compounds either in a neutral pH (6.8-7.0) drink or an acidic pH (3.3-3.7) drink formula. For this determination, the limited-solubility organic compound-containing beverages were prepared at their respective pHs, using spray-dried powder. […]

The conditions of data set [2]: individuals who have high cholesterol; cited from earlier work.

As for `CN(CC(=O)O)C(=N)N.O` [creatine monohydrate], in data set [1], the “creatine degradation curve (y=% creatine levels, after (x) number of days)” value is given as “y=48.294e^−0.024x”. In the case of `CN(CC(=O)O)C(=N)N` [creatine], in data set [2], the reduction of cholesterol entry was “up to 15%”.
